Measured values taken from patent US20260092071A1, “COMPOUNDS AND COMPOSITIONS AS SMARCA2/4 DEGRADERS AND USES THEREOF” (REGENTS OF THE UNIVERSITY OF MICHIGAN, priority 2022, published 2026).
Read-outs that look alike come from different tables or passages of the source.

Key:
[1] = biological target: SMARCA2 (Homo sapiens, UniProt P51531); assay: HiBit assay in engineered HT1080 CRISPR knock-in cell, 6 hrs (B series), SMARCA2; assay type: cell-based; conditions: 6 hrs incubation; for DC50: HT1080 CRISPR knock-in cells, read-out: SMARC A2 HT1080 HiBit DC50; for Dmax: HT-1080, HT1080 CRISPR knock-in cells, read-out: SMARC A2 HT1080 HiBit Dmax (%)
Sequence of SMARCA2 (P51531 whole entry): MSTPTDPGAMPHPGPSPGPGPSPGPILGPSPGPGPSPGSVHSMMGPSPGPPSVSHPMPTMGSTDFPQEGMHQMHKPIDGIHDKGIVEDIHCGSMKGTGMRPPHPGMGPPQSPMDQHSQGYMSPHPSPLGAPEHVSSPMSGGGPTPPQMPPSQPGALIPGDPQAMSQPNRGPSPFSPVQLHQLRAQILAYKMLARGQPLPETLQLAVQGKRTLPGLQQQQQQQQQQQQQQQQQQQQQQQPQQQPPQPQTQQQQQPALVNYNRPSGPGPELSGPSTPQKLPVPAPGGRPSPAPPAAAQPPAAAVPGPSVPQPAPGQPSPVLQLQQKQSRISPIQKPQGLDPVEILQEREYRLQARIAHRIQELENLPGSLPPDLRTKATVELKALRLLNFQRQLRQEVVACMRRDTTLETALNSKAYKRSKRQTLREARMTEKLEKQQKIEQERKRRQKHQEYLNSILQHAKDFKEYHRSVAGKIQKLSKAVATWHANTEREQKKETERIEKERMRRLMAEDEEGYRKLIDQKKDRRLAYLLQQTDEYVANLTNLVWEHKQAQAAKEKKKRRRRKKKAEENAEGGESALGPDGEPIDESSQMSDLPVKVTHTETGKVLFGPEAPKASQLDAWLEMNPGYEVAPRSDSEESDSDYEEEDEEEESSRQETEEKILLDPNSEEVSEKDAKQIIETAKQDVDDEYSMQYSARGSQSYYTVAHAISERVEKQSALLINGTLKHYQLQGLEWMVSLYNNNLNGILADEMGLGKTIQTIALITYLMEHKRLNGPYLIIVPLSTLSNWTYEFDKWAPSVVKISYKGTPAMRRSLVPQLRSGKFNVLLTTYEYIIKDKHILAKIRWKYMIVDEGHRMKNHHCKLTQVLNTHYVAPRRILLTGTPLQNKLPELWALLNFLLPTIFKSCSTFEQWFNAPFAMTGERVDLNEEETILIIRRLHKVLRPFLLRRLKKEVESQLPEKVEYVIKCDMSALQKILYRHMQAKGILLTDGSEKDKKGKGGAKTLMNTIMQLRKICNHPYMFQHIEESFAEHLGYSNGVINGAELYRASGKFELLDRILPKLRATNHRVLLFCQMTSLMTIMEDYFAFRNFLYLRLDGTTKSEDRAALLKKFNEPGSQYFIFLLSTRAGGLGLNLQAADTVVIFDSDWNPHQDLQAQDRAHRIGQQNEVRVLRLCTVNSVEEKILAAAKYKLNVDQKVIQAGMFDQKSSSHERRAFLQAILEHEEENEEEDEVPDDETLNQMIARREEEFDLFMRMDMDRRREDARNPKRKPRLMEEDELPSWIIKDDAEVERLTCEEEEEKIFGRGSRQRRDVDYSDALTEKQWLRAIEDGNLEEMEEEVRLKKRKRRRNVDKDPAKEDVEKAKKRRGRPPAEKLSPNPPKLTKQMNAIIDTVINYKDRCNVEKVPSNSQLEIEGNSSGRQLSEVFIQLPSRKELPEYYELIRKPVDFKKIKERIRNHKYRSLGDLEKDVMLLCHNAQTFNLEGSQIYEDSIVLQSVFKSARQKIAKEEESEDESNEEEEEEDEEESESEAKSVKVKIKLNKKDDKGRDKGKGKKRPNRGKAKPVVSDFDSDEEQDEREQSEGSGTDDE
Outline: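 HT1080 CRISPR knock-in cells carrying the HiBiT tag were seeded onto compounds (final DMSO 0.1%) and incubated 6 hrs at 37° C, 5% CO2. Remaining tagged protein was detected by lytic HiBiT luminescence after adding LgBiT protein and substrate, with LgBiT-free wells serving as negative control.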

[2] = biological target: SMARCA4 (Homo sapiens, UniProt P51532); assay: HiBit assay in engineered HT1080 CRISPR knock-in cell, 6 hrs (B series), SMARCA4; assay type: cell-based; conditions: for DC50: HT1080 CRISPR knock-in cells, read-out: SMARC A4 HT1080 HiBit DC50
Sequence of SMARCA4 (P51532 whole entry): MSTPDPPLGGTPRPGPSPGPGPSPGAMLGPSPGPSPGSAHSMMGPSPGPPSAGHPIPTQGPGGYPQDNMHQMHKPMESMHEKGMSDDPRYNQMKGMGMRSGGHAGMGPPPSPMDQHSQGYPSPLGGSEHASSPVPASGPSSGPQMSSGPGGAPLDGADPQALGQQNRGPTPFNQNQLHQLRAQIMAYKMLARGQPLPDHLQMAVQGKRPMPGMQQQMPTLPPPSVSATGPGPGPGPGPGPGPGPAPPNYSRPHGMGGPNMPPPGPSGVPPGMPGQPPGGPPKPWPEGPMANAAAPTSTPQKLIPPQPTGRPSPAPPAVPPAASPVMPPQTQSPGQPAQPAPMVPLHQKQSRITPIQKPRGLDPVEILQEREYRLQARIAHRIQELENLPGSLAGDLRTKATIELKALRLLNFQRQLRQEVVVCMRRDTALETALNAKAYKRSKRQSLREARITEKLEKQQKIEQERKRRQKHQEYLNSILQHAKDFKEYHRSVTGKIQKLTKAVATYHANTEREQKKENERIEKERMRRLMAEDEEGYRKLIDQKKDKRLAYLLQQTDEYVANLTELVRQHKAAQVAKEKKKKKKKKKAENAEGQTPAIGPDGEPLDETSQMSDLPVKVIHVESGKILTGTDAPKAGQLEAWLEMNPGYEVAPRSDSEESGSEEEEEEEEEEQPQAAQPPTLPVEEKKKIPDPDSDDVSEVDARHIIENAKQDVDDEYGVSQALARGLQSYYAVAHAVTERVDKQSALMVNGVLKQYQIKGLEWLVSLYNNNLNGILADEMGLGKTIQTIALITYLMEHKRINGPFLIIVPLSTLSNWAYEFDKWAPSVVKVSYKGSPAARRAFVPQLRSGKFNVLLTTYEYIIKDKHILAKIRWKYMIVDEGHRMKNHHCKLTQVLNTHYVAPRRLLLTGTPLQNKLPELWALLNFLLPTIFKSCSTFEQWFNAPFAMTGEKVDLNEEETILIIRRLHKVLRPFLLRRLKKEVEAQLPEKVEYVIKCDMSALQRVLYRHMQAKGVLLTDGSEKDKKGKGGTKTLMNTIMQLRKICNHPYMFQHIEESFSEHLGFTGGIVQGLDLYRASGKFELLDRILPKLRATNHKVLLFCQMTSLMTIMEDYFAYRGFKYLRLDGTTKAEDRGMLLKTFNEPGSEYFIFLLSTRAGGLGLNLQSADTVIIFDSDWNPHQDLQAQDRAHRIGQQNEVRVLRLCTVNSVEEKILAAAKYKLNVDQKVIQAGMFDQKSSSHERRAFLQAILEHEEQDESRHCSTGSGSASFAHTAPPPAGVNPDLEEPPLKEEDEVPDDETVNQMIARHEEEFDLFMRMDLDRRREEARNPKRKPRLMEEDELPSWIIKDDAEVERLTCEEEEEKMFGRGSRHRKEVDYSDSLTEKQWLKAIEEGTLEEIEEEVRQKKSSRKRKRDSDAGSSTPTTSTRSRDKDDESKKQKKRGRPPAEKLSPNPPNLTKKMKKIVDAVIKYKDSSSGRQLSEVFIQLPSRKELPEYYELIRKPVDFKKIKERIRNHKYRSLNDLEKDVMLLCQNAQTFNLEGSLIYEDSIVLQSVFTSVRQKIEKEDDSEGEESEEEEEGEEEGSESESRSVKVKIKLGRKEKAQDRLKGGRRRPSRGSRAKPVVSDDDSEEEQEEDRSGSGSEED
Outline: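 Compounds were dispensed first, then HT1080 knock-in cells added and incubated for 6 hrs at 37° C. Next, detection reagent containing LgBiT and lytic substrate was added. Plates were shaken 10 min and centrifuged, and luminescence was measured.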

[3] = HT-1080, HT1080 CRISPR knock-in cells, 6 hrs incubation, read-out: SMARC A4 HT1080 HiBit Dmax(%)

| SMILES | DC50 [1] [nM] | Dmax [1] [%] | DC50 ([2]; 6 hrs incubation) [nM] | Dmax [2, 3] [%] | Dmax ([2]; HT-1080, read-out: SMARC A4 HT1080 HiBit Dmax(%), HT1080 CRISPR knock-in cells, 6 hrs incubation) [%] |
| --- | --- | --- | --- | --- | --- |
| Cc1ncsc1-c1ccc([C@H](C)NC(=O)[C@@H]2C[C@@H](O)CN2C(=O)[C@@H](c2cc(OCCCn3cc(-c4ccc5c(c4)C(C)(C)c4nc(=O)c6c(Cl)cccc6n4-5)cn3)no2)C(C)C)cc1 [Compound B71, (2S,4R)-1-((R)-2-(3-(3-(4-(4-chloro-7,7-dimethyl-5-oxo-5,7-dihydroindolo[1,2-a]quinazolin-9-yl)-1H-pyrazol-1-yl)propoxy)isoxazol-5-yl)-3-methylbutanoyl)-4-hydroxy-N-((S)-1-(4-(4-methylthiazol-5-yl)phenyl)ethyl)pyrrolidine-2-carboxamide] | 100 to 500 | 50 to 69 | > 1000 | < 50 | – |
| CC#Cc1ccc([C@H](C)NC(=O)[C@@H]2C[C@@H](O)CN2C(=O)[C@H](C(C)C)n2cc([C@H]3CC[C@H](CN4CCC(c5ccc6c(c5)-n5c(nc(=O)c7c(Cl)cccc75)C6(C)C)CC4)CC3)nn2)cc1 [Compound B131, (2S,4R)-1-((S)-2-(4-((1r,4S)-4-((4-(4-chloro-7,7-dimethyl-5-oxo-5,7-dihydroindolo[1,2-a]quinazolin-10-yl)piperidin-1-yl)methyl)cyclohexyl)-1H-1,2,3-triazol-1-yl)-3-methylbutanoyl)-4-hydroxy-N-((S)-1-(4-(prop-1-yn-1-yl)phenyl)ethyl)pyrrolidine-2-carboxamide] | < 100 | > 90 | < 100 | 50 to 69 | – |
| C[C@H](NC(=O)[C@@H]1C[C@@H](O)CN1C(=O)[C@@H](n1cc([C@H]2CC[C@H](CN3CCN(c4ccc5c(c4)-n4c(nc(=O)c6c(Cl)cccc64)C5(C)C)CC3)CC2)nn1)C(C)(C)C)c1ccc(-c2ccnn2C)cc1 [Compound B125, (2S,4R)-1-((S)-2-(4-((1r,4S)-4-((4-(4-chloro-7,7-dimethyl-5-oxo-5,7-dihydroindolo[1,2-a]quinazolin-10-yl)piperazin-1-yl)methyl)cyclohexyl)-1H-1,2,3-triazol-1-yl)-3,3-dimethylbutanoyl)-4-hydroxy-N-((S)-1-(4-(1-methyl-1H-pyrazol-5-yl)phenyl)ethyl)pyrrolidine-2-carboxamide] | < 100 | > 90 | < 100 | 70 to 90 | – |
| Cc1nc(C)c(-c2ccc([C@H](C)NC(=O)[C@@H]3C[C@@H](O)CN3C(=O)[C@@H](c3cc(N4CCC(c5cccc6c5C(C)(C)c5nc(=O)c7c(Cl)cccc7n5-6)CC4)no3)C(C)C)cc2)s1 [Compound B167, (2S,4R)-1-(2-(3-(4-(4-chloro-7,7-dimethyl-5-oxo-5,7-dihydroindolo[1,2-a]quinazolin-8-yl)piperidin-1-yl)isoxazol-5-yl)-3-methylbutanoyl)-N-((S)-1-(4-(2,4-dimethylthiazol-5-yl)phenyl)ethyl)-4-hydroxypyrrolidine-2-carboxamide] | < 100 | 70 to 90 | 100 to 500 | < 50 | – |
| Cc1ncsc1-c1ccc([C@H](CCCCCN2CCC(c3ccc4c(c3)C(C)(C)c3nc(=O)c5c(Cl)cccc5n3-4)CC2)NC(=O)[C@@H]2C[C@@H](O)CN2C(=O)[C@@H](NC(=O)C2(F)CC2)C(C)(C)C)cc1 [Compound B7, (2S,4R)—N—((S)-6-(4-(4-chloro-7,7-dimethyl-5-oxo-5,7-dihydroindolo[1,2-a]quinazolin-9-yl)piperidin-1-yl)-1-(4-(4-methylthiazol-5-yl)phenyl)hexyl)-1-((S)-2-(1-fluorocyclopropane-1-carboxamido)-3,3-dimethylbutanoyl)-4-hydroxypyrrolidine-2-carboxamide] | < 100 | > 90 | < 100 | > 90 | – |

Results, then the compound that gave them:

| DC50 [1] [nM] | Dmax [1] [%] | DC50 ([2]; 6 hrs incubation) [nM] | Dmax [2, 3] [%] | Dmax ([2]; HT-1080, read-out: SMARC A4 HT1080 HiBit Dmax(%), HT1080 CRISPR knock-in cells, 6 hrs incubation) [%] | SMILES |
| --- | --- | --- | --- | --- | --- |
| < 100 | > 90 | < 100 | > 90 | – | Cc1cc(C(C(=O)N2C[C@H](O)C[C@H]2C(=O)N[C@@H](CCCCCN2CCC(c3ccc4c(c3)C(C)(C)c3nc(=O)c5c(Cl)cccc5n3-4)CC2)c2ccc(-c3scnc3C)cc2)C(C)C)on1 (stereo partly drawn) [Compound B85, (2S,4R)-N-((S)-6-(4-(4-chloro-7,7-dimethyl-5-oxo-5,7-dihydroindolo[1,2-a]quinazolin-9-yl)piperidin-1-yl)-1-(4-(4-methylthiazol-5-yl)phenyl)hexyl)-4-hydroxy-1-(3-methyl-2-(3-methylisoxazol-5-yl)butanoyl)pyrrolidine-2-carboxamide] |
| < 100 | > 90 | < 100 | 70 to 90 | – | Cc1cc(C(C(=O)N2C[C@H](O)C[C@H]2C(=O)N[C@@H](CN2CCC(CN3CCC(c4cccc5c4C(C)(C)c4nc(=O)c6c(Cl)cccc6n4-5)CC3)CC2)c2ccc(-c3scnc3C)cc2)C(C)C)on1 (stereo partly drawn) [Compound B139, (2S,4R)—N—((R)-2-(4-((4-(4-chloro-7,7-dimethyl-5-oxo-5,7-dihydroindolo[1,2-a]quinazolin-8-yl)piperidin-1-yl)methyl)piperidin-1-yl)-1-(4-(4-methylthiazol-5-yl)phenyl)ethyl)-4-hydroxy-1-(3-methyl-2-(3-methylisoxazol-5-yl)butanoyl)pyrrolidine-2-carboxamide] |
| < 100 | > 90 | < 100 | 70 to 90 | – | Cc1ncsc1-c1ccc([C@H](CN2CCOCC2)NC(=O)[C@@H]2C[C@@H](O)CN2C(=O)[C@H](C(C)C)n2cc([C@H]3CC[C@H](CN4CCN(c5ccc6c(c5)-n5c(nc(=O)c7c(Cl)cccc75)C6(C)C)CC4)CC3)nn2)cc1 [Compound B129, (2S,4R)-1-((S)-2-(4-((1r,4S)-4-((4-(4-chloro-7,7-dimethyl-5-oxo-5,7-dihydroindolo[1,2-a]quinazolin-10-yl)piperazin-1-yl)methyl)cyclohexyl)-1H-1,2,3-triazol-1-yl)-3-methylbutanoyl)-4-hydroxy-N-((R)-1-(4-(4-methylthiazol-5-yl)phenyl)-2-morpholinoethyl)pyrrolidine-2-carboxamide] |
| < 100 | > 90 | < 100 | 70 to 90 | – | Cc1ncsc1-c1ccc([C@H](CN2CCOCC2)NC(=O)[C@@H]2C[C@@H](O)CN2C(=O)[C@@H](c2cc(N3CCC(c4ccc5c(c4)C(C)(C)c4nc(=O)c6c(Cl)cccc6n4-5)CC3)no2)C(C)C)cc1 [Compound B110, (2S,4R)-1-(2-(3-(4-(4-chloro-7,7-dimethyl-5-oxo-5,7-dihydroindolo[1,2-a]quinazolin-9-yl)piperidin-1-yl)isoxazol-5-yl)-3-methylbutanoyl)-4-hydroxy-N—((R)-1-(4-(4-methylthiazol-5-yl)phenyl)-2-morpholinoethyl)pyrrolidine-2-carboxamide] |
| < 100 | > 90 | < 100 | – | > 90 | Cc1ncsc1-c1ccc([C@H](CN2CCOCC2)NC(=O)[C@@H]2C[C@@H](O)CN2C(=O)[C@@H](c2cc(O[C@H]3CC[C@H](CN4CCC(c5ccc6c(c5)-n5c(nc(=O)c7c(Cl)cccc75)C6(C)C)CC4)CC3)no2)C(C)C)cc1 [Compound B157, (2S,4R)-1-((R)-2-(3-(((1r,4R)-4-((4-(4-chloro-7,7-dimethyl-5-oxo-5,7-dihydroindolo[1,2-a]quinazolin-10-yl)piperidin-1-yl)methyl)cyclohexyl)oxy)isoxazol-5-yl)-3-methylbutanoyl)-4-hydroxy-N-((R)-1-(4-(4-methylthiazol-5-yl)phenyl)-2-morpholinoethyl)pyrrolidine-2-carboxamide] |
| 100 to 500 | 70 to 90 | 100 to 500 | < 50 | – | Cc1ncsc1-c1ccc([C@H](C)NC(=O)[C@@H]2C[C@@H](O)CN2C(=O)[C@@H](NC(=O)C2CCC(N3CCC(c4ccc5c(c4)-n4c(nc(=O)c6c(Cl)cccc64)C5(C)C)CC3)CC2)C(C)(C)C)cc1 (stereo partly drawn) [Compound B47, (2S,4R)-1-((S)-2-(4-(4-(4-chloro-7,7-dimethyl-5-oxo-5,7-dihydroindolo[1,2-a]quinazolin-10-yl)piperidin-1-yl)cyclohexane-1-carboxamido)-3,3-dimethylbutanoyl)-4-hydroxy-N-((S)-1-(4-(4-methylthiazol-5-yl)phenyl)ethyl)pyrrolidine-2-carboxamide] |
| < 100 | > 90 | < 100 | > 90 | – | Cc1ncsc1-c1ccc([C@H](CN2CCOCC2)NC(=O)[C@@H]2C[C@@H](O)CN2C(=O)[C@@H](c2cc(O[C@H]3CC[C@H](CN4CCC(c5ccc6c(c5)-n5c(nc(=O)c7c(Cl)cccc75)C65CCCCC5)CC4)CC3)no2)C(C)C)cc1 [Compound B158, (2S,4R)-1-((R)-2-(3-(((11,4R)-4-((4-(4′-chloro-5′-oxo-5′H-spiro[cyclohexane-1,7′-indolo[1,2-a]quinazolin]-10′-yl)piperidin-1-yl)methyl)cyclohexyl)oxy)isoxazol-5-yl)-3-methylbutanoyl)-4-hydroxy-N-((R)-1-(4-(4-methylthiazol-5-yl)phenyl)-2-morpholinoethyl)pyrrolidine-2-carboxamide] |
